The record followed here is patent publication US20130137753A1, “METHODS AND COMPOSITIONS FOR THE DIAGNOSIS AND TREATMENT OF BREAST CANCER” (UNIVERSITY OF SOUTH ALABAMA, priority 2010, published 2013).

The subject of test [1] is Merlin. Briefly: Western blot of Merlin in MDA-MB-435 cells treated with Lactacystin and wortmannin. The conditions noted are these: combined treatment Lactacystin 10-25 μM and wortmannin 100 nM, FIG. 4E. In kind it is cell-based. The procedure: FIG. 4 depicts OPN targeting Merlin for Akt-mediated proteasomal degradation. FIG. 4A is a Western blot of SUM159 cells transfected with Merlin and treated with OPN and Lactacystin. […] The smear represents ubiquitinated Merlin. FIG. 4D is a Western blot of SUM159 transfected with HA-ubiquitin and Merlin and treated with OPN (100 ng/ml), Lactacystin (10 μM) and Akt inhibitor IV. FIG. 4E is a Western blot of MDA-MB-435 cells treated with the PI-3-kinase inhibitor, wortmannin and Lactacystin. Cells were pre-treated with Wortmannin (100 nM) for 1 hr followed by Lactacystin for 4.5 hours.
The converse was seen when MDAMB-435 cells were treated with the proteasome inhibitor, Lactacystin (10-25 μM) and the PI-3-kinase inhibitor, wortmannin (100 nM). […] Silencing the expression of OPN reduced the overall levels of ubiquitinated Merlin; in combination with Akt inhibitor and Lactacystin, abrogating OPN expression caused a notable decrease in the ubiquitinated Merlin (FIG. 4F).

The subject of test [2] is Merlin. Kind of test: Immunoprecipitation of endogenous Merlin and anti-HA blot for ubiquitination in MCF10AT cells transfected with HA-ubiquitin. In kind it is cell-based, human. The procedure: (§1) Immunoprecipitation—Cells were transfected with pcDNA3.1 HA-ubiquitin alone or in combination with pIRES2-myc-Merlin and incubated for 24 hrs. Cells were treated with 10 μM Lactacystin, 100 ng/ml OPN and 10 μM AKT inhibitor IV for 12 hrs and lysed in NP-40 buffer. The lysate was immunoprecipitated with anti-Merlin antibody and the immunoprecipitate was assessed by immunoblotting.
To examine if OPN can induce ubiquitination of endogenous Merlin leading to its proteasomal degradation, MCF10AT cells were transfected with a HA-ubiquitin expressing construct. MCF10AT cells were transfected with HA-ubiquitin and treated with OPN, Lactacystin and Akt inhibitor IV. Cell lysate (2 mg) harvested in NP40 buffer was immunoprecipitated overnight for endogenous Merlin. The immunoprecipitate was immunoblotted with anti-HA antibody. Merlin and GAPDH levels from the cell lysates were inputs for the experiment.

The next test concerns Akt. Kind of test: Western blot of phospho-Akt and Merlin in MCF10AT cells treated with OPN and Akt inhibitor IV. Format: cell-based, human. Conditions: FIG. 4B. The source says: (§2) Western Blotting Analysis—Immunoblotting was done with anti-Merlin (Santa Cruz Biotech, Santa Cruz, Calif.), phospho-Ser473-Akt (Cell Signaling, Danvers, MAT), total Akt (Cell Signaling), anti-mouse HA (Santa Cruz), antiphospho-Ser315 Merlin, and anti-GAPDH (Cell Signaling). Anti-rabbit or anti-mouse HRP conjugated secondary antibody was used for detection and blots were developed with SuperSignal substrate (Pierce, Rockford, Ill.) and exposed using a Fuji LAS3000 imager.
(§3) Transfection and Drug Treatment—Cells were transfected with empty vector, Merlin (WT; wild-type) or T230A S315A Merlin mutant and treated with clasto-Lactacystin β-Lactone (Sigma, St. Louis, Mo.) for 2 hours. Recombinant OPN (100 ng/mL) (R&D Systems, Minneapolis, Minn.) was added and cells were lysed after 6 hours. Where indicated, cells were first treated with Akt inhibitor IV (Calbiochem) in serum free media for 30 min followed by 100 ng/mL human rOPN for 24 hours.
OPN interacts with a variety of cell surface receptors including CD44 and multiple integrins to activate signaling via the Akt pathway (31,38,39). […] The levels of total Akt remain unaltered. MCF10AT cells were also treated with Akt inhibitor IV in addition to OPN. […] Phosphorylation of Merlin via Akt targets it for degradation by the proteasome (15,40,41).
(In general: Immunoblotting shows a protein as a band on a membrane.)

The test system of test [3] is Merlin. Kind of test: Immunoprecipitation of Merlin and anti-HA blot for ubiquitination in SUM159 cells transfected with HA-ubiquitin and Merlin. Format: cell-based, human. Conditions: SUM159 cells constitutively expressing Merlin, OPN 100 ng/ml, Lactacystin 10 μM, FIG. 4D. The procedure: as §1
To assess the role of activated Akt induced by OPN, cells were co-treated with an Akt inhibitor. SUM159 cells were transfected with HA-ubiquitin and Merlin and treated with OPN (100 ng/ml), Lactacystin (10 μM) and Akt inhibitor IV. Cell lysate (1 mg) harvested in NP40 buffer was immunoprecipitated for Merlin. The immunoprecipitate was immunoblotted with anti-HA antibody. […] Merlin ubiquitination was enhanced when co-treated with OPN and was abolished in the presence of Akt inhibitor re-affirming the role of Akt downstream of OPN in modulating the stability of Merlin (FIG. 4D).

Test [4] has as its system Merlin. Kind of test: Western blot of Merlin protein levels in SUM159 cells transfected with Merlin cDNA and treated with recombinant OPN and Lactacystin. In kind it is cell-based, human. Conditions: SUM159 cells transfected with Merlin cDNA, recombinant OPN 100 ng/mL, FIG. 4A.
Text: as §2, §3
Akt signaling initiated downstream of OPN may regulate Merlin. To examine the effects of OPN on the post-translational regulation of Merlin, specifically the stability of Merlin protein, SUM159 breast cancer cells were transfected with Merlin cDNA and treated with recombinant OPN.

For test [5], the system named is Merlin. Briefly: Western blot of phosphorylated Merlin (Serine 315) in SUM159 cells transfected with Merlin and treated with OPN. Conditions: SUM159 cells transfected with Merlin, treated with OPN, FIG. 5A. Format: cell-based, human.
Text: as §2
Lysate from SUM159 cells transfected with Merlin and treated with OPN was probed for total Merlin and phosphorylated Merlin (Serine 315). GAPDH was used as a loading control. […] Phosphorylation of Merlin at this residue has been reported to target it for proteasome-mediated degradation (15,40). In particular, […] of Serine 315 and Threonine 230 makes Merlin refractory to OPN. SUM159 cells were transfected with Merlin (WT) or the T230A/S315A Merlin mutant and treated with OPN and Lactacystin. Cell lysates were probed for total Merlin. GAPDH was used as a loading control. Mutant Merlin (T230A S315A) is not degraded in response to OPN, whereas wild-type Merlin is degraded by OPN. […] It was further determined that while OPN is able to induce degradation of Merlin, the Merlin mutant T230A S315A (that cannot be phosphorylated by Akt) is resistant to the effects of OPN (FIG. 5B). […]

Consider `CC(=O)N[C@@H](CSC(=O)[C@]1([C@@H](O)C(C)C)NC(=O)[C@H](C)[C@@H]1O)C(=O)O`, for which the Merlin expression entry with Merlin [1] is on record as “restored Merlin expression”.

Turning to Akt inhibitor IV, the “ubiquitination of endogenous Merlin” value in the test on Merlin [2] (co-treatment with Akt inhibitor in the presence of OPN) is listed as “abolished”. Moreover, in the test with Akt (Akt inhibitor IV in addition to OPN), the “levels of Akt phosphorylation” value was “decreased”. The “levels of Merlin” value in the test with Akt (Akt inhibitor IV in the presence of OPN) is listed as “restored”. Besides, in the test on Merlin [3], the Merlin ubiquitination entry was “abolished”.

In the case of “OPN: Recombinant OPN (R&D Systems), human rOPN; secreted phosphoglycoprotein osteopontin”, the “ubiquitination of endogenous Merlin (smear)” value with Merlin [2] (MCF10AT cells transfected with HA-ubiquitin, FIG. 4C) is “some ubiquitination”. In the test with Akt (recombinant OPN alone), the “Akt activation (phosphorylation of Akt to phospho-Akt)” value is recorded as “activated Akt” and the “levels of Merlin” value is on record as “decrease in the levels of Merlin”. Further, the “protein levels of Merlin” value in the test on Merlin [4] is listed as “decrease in the protein levels of Merlin”. The “phosphorylation of Merlin at Ser315” value in the test with Merlin [5] is “phosphorylation of Merlin at the Ser315 position”. Besides, in the test with Merlin [3], the Merlin ubiquitination result is on record as “enhanced”.
